# Results published in ChEMBL document CHEMBL5291721, “A preclinical secondary pharmacology resource illuminates target-adverse drug reaction associations of marketed drugs” (Nat Commun, 2023).
# Tests used:
# [1] = molecular target: T1, Peroxisome proliferator-activated receptor gamma (Homo sapiens, UniProt P37231); format: functional
# T1 sequence (P37231 whole entry): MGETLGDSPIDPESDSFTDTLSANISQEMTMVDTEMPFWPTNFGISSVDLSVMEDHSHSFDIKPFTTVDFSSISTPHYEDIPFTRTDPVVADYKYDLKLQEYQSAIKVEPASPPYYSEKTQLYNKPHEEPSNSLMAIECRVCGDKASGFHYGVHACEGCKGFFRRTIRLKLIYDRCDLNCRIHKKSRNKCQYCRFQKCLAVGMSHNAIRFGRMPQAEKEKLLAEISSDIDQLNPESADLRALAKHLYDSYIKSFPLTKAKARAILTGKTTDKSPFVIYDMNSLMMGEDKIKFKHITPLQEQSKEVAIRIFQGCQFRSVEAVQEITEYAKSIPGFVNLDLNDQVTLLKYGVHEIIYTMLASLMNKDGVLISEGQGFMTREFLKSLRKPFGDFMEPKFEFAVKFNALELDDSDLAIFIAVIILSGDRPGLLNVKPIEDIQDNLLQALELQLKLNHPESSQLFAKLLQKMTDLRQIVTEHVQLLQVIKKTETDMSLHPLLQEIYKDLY
# [2] = molecular target: Beta-3 adrenergic receptor (Homo sapiens, UniProt P13945)
# Sequence of Beta-3 adrenergic receptor (P13945 whole entry): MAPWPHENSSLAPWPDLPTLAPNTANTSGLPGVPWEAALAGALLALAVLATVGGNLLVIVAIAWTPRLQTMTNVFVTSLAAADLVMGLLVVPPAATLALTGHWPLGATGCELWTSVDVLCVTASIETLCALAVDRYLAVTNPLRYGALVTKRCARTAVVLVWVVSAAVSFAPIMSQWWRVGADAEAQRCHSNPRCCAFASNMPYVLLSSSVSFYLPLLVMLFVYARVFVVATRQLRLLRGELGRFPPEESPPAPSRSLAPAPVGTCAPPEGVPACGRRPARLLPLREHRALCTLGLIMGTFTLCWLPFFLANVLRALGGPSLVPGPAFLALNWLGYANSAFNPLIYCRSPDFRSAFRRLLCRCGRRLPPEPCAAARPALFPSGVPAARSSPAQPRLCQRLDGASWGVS
# [3] = molecular target: Glucagon receptor (Homo sapiens, UniProt P47871)
# Sequence of Glucagon receptor (P47871 whole entry): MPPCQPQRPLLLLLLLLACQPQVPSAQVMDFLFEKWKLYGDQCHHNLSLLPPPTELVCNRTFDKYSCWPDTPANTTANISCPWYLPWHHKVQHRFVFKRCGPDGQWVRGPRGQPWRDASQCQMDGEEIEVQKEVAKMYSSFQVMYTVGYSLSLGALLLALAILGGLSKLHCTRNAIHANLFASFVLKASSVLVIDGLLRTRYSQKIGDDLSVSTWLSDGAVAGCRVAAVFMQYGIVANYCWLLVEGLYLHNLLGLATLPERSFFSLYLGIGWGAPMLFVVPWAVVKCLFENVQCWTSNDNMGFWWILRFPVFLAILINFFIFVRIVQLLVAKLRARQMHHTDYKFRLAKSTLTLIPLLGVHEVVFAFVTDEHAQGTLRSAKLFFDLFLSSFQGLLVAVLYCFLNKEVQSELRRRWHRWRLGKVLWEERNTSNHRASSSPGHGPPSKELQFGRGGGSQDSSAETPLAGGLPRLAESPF
# [4] = molecular target: T2, 5-hydroxytryptamine receptor 1A (Homo sapiens, UniProt P08908)
# T2 sequence (P08908 whole entry): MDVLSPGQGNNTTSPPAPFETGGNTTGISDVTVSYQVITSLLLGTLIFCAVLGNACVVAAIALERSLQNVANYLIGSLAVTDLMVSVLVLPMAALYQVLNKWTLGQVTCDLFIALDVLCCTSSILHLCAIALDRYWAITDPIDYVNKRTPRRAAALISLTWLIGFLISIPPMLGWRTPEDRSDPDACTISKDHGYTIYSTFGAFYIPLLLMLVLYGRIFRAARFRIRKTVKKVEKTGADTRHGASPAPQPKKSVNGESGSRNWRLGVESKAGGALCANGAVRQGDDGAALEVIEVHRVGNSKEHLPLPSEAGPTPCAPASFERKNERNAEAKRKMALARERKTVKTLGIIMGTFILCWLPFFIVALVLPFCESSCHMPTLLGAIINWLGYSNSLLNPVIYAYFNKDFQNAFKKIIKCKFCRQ
# [5] = molecular target: Gamma-aminobutyric acid receptor subunit alpha-1 (Rattus norvegicus, UniProt P62813)
# Sequence of Gamma-aminobutyric acid receptor subunit alpha-1 (P62813 whole entry): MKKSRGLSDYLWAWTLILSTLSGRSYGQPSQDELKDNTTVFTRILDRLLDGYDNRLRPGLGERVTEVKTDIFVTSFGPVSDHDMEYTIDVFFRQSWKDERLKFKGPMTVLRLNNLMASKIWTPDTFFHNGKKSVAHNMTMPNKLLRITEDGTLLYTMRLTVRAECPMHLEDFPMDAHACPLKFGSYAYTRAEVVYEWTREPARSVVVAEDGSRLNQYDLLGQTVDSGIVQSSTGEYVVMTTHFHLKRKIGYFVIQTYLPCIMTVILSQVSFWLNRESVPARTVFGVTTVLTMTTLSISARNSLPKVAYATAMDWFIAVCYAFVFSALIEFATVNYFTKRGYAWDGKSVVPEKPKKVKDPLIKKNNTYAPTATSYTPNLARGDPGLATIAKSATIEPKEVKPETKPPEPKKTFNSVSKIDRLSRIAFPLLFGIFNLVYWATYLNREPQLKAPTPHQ
# [6] = molecular target: T3, Progesterone receptor (Homo sapiens, UniProt P06401)
# T3 sequence (P06401 whole entry): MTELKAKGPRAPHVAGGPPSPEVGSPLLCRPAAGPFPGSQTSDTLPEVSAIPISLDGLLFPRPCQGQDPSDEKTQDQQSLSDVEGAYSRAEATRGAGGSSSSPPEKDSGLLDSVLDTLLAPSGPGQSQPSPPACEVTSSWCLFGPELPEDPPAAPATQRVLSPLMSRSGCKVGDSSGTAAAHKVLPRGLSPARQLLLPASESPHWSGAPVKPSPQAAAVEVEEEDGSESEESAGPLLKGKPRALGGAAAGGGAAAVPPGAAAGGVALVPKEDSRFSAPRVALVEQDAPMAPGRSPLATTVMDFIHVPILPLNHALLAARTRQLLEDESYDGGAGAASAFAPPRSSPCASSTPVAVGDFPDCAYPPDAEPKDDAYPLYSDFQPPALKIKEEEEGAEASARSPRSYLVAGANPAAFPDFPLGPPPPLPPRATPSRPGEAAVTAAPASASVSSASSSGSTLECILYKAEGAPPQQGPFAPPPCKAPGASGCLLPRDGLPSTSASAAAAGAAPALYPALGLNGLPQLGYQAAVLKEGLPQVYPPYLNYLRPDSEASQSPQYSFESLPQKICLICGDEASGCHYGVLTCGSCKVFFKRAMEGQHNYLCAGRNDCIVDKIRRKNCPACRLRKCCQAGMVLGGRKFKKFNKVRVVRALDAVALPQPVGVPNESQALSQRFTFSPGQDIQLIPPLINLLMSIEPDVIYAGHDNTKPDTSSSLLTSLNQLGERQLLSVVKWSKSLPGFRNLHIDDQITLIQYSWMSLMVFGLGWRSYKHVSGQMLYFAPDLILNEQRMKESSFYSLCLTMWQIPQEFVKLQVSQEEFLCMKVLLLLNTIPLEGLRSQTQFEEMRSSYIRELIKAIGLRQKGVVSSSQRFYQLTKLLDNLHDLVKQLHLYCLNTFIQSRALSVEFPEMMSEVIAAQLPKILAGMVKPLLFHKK
# [7] = molecular target: Gamma-aminobutyric acid receptor subunit alpha-1/alpha-2/beta-2/gamma-2 (Homo sapiens, UniProt P14867+P18507+P47869+P47870); format: functional, cell-based
# Sequence of Gamma-aminobutyric acid receptor subunit alpha-1/alpha-2/beta-2/gamma-2 (P14867 whole entry): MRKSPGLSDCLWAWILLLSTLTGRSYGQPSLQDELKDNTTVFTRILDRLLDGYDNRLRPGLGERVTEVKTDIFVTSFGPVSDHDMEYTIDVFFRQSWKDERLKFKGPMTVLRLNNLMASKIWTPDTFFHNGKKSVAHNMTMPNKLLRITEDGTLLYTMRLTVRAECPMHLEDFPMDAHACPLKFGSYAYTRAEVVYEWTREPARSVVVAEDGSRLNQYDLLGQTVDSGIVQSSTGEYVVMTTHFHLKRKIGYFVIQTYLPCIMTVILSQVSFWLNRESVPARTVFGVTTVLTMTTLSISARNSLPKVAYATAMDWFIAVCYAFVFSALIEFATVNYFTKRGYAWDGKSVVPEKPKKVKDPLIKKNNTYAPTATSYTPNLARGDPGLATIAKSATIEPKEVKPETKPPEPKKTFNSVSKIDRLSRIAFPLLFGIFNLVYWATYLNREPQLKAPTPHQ
# Sequence of Gamma-aminobutyric acid receptor subunit alpha-1/alpha-2/beta-2/gamma-2 (P47870 whole entry): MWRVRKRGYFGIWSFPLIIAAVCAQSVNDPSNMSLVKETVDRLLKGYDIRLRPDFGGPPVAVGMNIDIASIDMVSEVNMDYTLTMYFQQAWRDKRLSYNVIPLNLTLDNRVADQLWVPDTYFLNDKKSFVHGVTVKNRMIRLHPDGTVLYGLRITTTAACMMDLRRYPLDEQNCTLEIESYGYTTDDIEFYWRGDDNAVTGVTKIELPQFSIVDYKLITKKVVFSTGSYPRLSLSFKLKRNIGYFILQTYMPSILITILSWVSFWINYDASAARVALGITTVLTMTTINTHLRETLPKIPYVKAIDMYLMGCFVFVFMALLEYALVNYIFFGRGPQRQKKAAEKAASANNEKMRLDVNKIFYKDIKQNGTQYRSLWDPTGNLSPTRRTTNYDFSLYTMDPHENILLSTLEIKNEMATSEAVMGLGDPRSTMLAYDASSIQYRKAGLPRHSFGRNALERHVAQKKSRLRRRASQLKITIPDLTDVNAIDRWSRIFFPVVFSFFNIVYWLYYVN
# Sequence of Gamma-aminobutyric acid receptor subunit alpha-1/alpha-2/beta-2/gamma-2 (P18507 whole entry): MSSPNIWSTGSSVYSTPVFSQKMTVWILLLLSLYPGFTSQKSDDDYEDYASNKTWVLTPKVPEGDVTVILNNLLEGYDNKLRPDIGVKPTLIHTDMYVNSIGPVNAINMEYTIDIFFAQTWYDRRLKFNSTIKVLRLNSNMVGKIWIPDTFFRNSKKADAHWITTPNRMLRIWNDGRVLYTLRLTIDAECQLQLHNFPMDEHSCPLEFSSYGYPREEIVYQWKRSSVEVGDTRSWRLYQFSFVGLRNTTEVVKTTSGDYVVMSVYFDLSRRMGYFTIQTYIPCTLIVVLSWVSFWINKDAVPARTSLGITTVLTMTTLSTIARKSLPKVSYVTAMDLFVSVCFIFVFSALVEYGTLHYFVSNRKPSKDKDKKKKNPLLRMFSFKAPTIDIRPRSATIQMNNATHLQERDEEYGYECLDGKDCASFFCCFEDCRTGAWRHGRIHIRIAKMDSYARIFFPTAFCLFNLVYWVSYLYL
# Sequence of Gamma-aminobutyric acid receptor subunit alpha-1/alpha-2/beta-2/gamma-2 (P47869 whole entry): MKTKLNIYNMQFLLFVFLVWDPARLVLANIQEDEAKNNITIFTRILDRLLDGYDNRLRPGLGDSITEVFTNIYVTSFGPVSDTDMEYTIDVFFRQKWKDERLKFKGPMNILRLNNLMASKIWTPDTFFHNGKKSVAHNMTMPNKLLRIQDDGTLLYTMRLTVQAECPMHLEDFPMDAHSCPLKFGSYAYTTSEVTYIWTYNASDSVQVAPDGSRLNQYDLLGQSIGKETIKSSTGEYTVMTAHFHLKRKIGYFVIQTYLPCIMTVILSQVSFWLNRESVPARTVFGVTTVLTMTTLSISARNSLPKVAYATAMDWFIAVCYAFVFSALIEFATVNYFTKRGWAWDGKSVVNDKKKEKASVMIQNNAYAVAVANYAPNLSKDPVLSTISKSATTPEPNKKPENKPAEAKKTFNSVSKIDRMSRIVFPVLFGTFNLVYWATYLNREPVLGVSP
# [8] = molecular target: T4, Alpha-1A adrenergic receptor (Homo sapiens, UniProt P35348)
# T4 sequence (P35348 whole entry): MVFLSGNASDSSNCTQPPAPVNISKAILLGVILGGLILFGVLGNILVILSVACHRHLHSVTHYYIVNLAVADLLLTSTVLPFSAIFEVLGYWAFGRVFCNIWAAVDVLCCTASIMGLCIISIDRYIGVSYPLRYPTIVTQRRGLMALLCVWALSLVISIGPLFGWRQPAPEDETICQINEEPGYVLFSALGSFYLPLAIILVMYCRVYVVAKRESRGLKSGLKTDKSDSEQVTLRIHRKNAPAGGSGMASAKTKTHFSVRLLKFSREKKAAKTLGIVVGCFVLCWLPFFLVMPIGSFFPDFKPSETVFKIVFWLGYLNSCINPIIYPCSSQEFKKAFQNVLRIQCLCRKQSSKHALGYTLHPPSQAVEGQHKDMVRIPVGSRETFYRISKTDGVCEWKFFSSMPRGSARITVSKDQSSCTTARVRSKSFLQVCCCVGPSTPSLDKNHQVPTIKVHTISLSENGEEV
# [9] = molecular target: Substance-P receptor (Homo sapiens, UniProt P25103)
# Sequence of Substance-P receptor (P25103 whole entry): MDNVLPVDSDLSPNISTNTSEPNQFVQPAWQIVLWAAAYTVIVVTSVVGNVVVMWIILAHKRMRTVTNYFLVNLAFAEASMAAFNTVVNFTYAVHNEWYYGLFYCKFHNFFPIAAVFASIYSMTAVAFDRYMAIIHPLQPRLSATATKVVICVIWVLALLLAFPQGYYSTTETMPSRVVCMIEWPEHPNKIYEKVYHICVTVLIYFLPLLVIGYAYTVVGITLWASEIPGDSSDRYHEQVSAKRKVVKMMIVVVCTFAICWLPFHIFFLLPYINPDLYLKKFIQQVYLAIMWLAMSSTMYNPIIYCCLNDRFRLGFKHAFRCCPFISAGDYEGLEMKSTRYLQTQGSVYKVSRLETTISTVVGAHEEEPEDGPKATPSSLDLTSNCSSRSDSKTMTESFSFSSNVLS
# Also: assay procedure not described here.
structure (smiles),measurement,setting,value
O=C1Nc2ccc(Cl)cc2[C@@](C#CC2CC2)(C(F)(F)F)O1 [EFAVIRENZ],AC50,[1],18 µM
CO[C@H]1C[C@@H]2CC[C@@H](C)[C@@](O)(O2)C(=O)C(=O)N2CCCC[C@H]2C(=O)O[C@H]([C@H](C)C[C@@H]2CC[C@@H](O)[C@H](OC)C2)CC(=O)[C@H](C)/C=C(\C)[C@@H](O)[C@@H](OC)C(=O)[C@H](C)C[C@H](C)/C=C/C=C/C=C/1C [SIROLIMUS],AC50,[2],23.8 µM
same,AC50,[3],> 30 µM
same,AC50,[4],> 10 µM
same,AC50,[5],> 30 µM
same,AC50,[6],> 30 µM
C[N+]1(C)CCC(OC(=O)C(O)(c2ccccc2)C2CCCC2)C1 (stereo not given) [GLYCOPYRRONIUM BROMIDE],AC50,[6],> 30 µM
O=C(Cc1ccc(-c2ccccc2)cc1)Nc1ccccn1 [DIFENPIRAMIDE],AC50,[7],> 30 µM
same,AC50,[5],> 30 µM
CN1C(C(=O)Nc2ccccn2)=C(O)c2sc(Cl)cc2S1(=O)=O [LORNOXICAM],AC50,[4],> 10 µM
same,AC50,[6],> 30 µM
C1CCC(C(CC2CCCCN2)C2CCCCC2)CC1 (stereo not given) [PERHEXILINE],AC50,[1],> 30 µM
CCC(C)n1ncn(-c2ccc(N3CCN(c4ccc(OCC5COC(Cn6cncn6)(c6ccc(Cl)cc6Cl)O5)cc4)CC3)cc2)c1=O (stereo not given) [ITRACONAZOLE],AC50,[8],> 10 µM
same,AC50,[9],1.54 µM
same,AC50,[2],> 30 µM
same,AC50,[3],> 30 µM
same,AC50,[4],> 10 µM
same,AC50,[6],> 30 µM
Cc1ccc(-c2cc(C(F)(F)F)nn2-c2ccc(S(N)(=O)=O)cc2)cc1 [CELECOXIB],AC50,[8],> 10 µM
same,AC50,[9],> 10 µM
same,AC50,[2],5.2 µM
same,AC50,[3],> 30 µM
same,AC50,[4],> 10 µM
same,AC50,[6],> 30 µM
Clc1ccc2nsnc2c1NC1=NCCN1 [TIZANIDINE],AC50,[8],1.92 µM
same,AC50,[9],> 10 µM
same,AC50,[2],> 30 µM
same,AC50,[3],> 30 µM
same,AC50,[4],> 10 µM
same,AC50,[6],> 30 µM
CCC1=C(C)CN(C(=O)NCCc2ccc(S(=O)(=O)NC(=O)N[C@H]3CC[C@H](C)CC3)cc2)C1=O [GLIMEPIRIDE],AC50,[5],> 30 µM
CCC(=O)NCC[C@@H]1CCc2ccc3c(c21)CCO3 [RAMELTEON],AC50,[5],> 30 µM
C[N+](C)(C)CCO [CHOLINE],AC50,[5],> 30 µM
CNC1Cc2ccccc2N(C)c2ccccc21 (stereo not given) [METAPRAMINE],AC50,[7],> 30 µM
same,AC50,[1],> 30 µM
C[C@]12CCC(=O)C=C1CC[C@@H]1[C@@H]2[C@@H](O)C[C@@]2(C)[C@H]1CC[C@]2(O)C(=O)CO [HYDROCORTISONE],AC50,[9],> 10 µM
same,AC50,[2],> 30 µM
same,AC50,[3],> 30 µM
same,AC50,[4],> 10 µM
same,AC50,[6],7.61 µM
CNC(=O)c1ccccc1Sc1ccc2c(/C=C/c3ccccn3)n[nH]c2c1 [AXITINIB],AC50,[7],> 30 µM
same,AC50,[6],> 30 µM
CCc1oc2ccccc2c1C(=O)c1cc(I)c(O)c(I)c1 [BENZIODARONE],AC50,[5],17.1 µM
CN(C)[C@@H](c1cccc(O)c1)[C@H]1CCCC[C@H]1O [CIRAMADOL],AC50,[5],> 30 µM
c1ccc([C@H]2CN3CCSC3=N2)cc1 [LEVAMISOLE],AC50,[7],> 30 µM
same,AC50,[1],> 30 µM
same,AC50,[6],> 30 µM
CN(C)S(=O)(=O)c1ccc2c(c1)N(CCCN1CCC(CCO)CC1)c1ccccc1S2 [PIPOTIAZINE],AC50,[5],> 30 µM
COc1ccc(CC(C)(C)NC[C@H](O)c2cc(O)cc3c2OCC(=O)N3)cc1 [OLODATEROL],AC50,[7],> 30 µM
same,AC50,[1],> 30 µM
